Read-outs that look alike come from different tables or passages of the source.
Key:
Assay in all cases: biochemical
Parameters in all cases: KINOMEscan active site-directed competition binding assay (DiscoveRx), 456 kinases, per cent of control at 300 nM
Conditions in all cases: read-out: Percent of Control (%)
JNK2 = molecular target: T1, JNK2 (Homo sapiens, UniProt P45984)
T1 construct: gene MAPK9
Method in brief: (§1)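 Binding was measured with an active site-directed competition binding assay that quantifies compound–kinase interactions. Test compounds were screened at 300 nmol/L across a 456-kinase panel.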

ERBB2 = ERBB2 (Homo sapiens, UniProt P04626)
Method in brief: as §1

IKK-epsilon = molecular target: T2, IKK-epsilon (Homo sapiens, UniProt Q14164)
T2 construct: gene IKBKE
Method in brief: as §1

PCTK2 = molecular target: T3, PCTK2 (Homo sapiens, UniProt Q00537)
T3 construct: gene CDK17
Method in brief: as §1

LYN = LYN (Homo sapiens, UniProt P07948)
Method in brief: as §1

EPHB4 = EPHB4 (Homo sapiens, UniProt P54760)
Method in brief: as §1

NEK2 = NEK2 (Homo sapiens, UniProt P51955)
Method in brief: as §1

TYRO3 = TYRO3 (Homo sapiens, UniProt Q06418)
Method in brief: as §1

PFTK1 = molecular target: T4, PFTK1 (Homo sapiens, UniProt O94921)
T4 construct: gene CDK14
Method in brief: as §1

WNK1 = WNK1 (Homo sapiens, UniProt Q9H4A3)
Method in brief: as §1

PAK7 = molecular target: T5, PAK7 (Homo sapiens, UniProt Q9P286)
T5 construct: gene PAK5
Method in brief: as §1

PIK3C2G = PIK3C2G (Homo sapiens, UniProt O75747)
Method in brief: as §1

MAP4K4 = MAP4K4 (Homo sapiens, UniProt O95819)
Method in brief: as §1

PRKR = molecular target: T6, PRKR (Homo sapiens, UniProt P19525)
T6 construct: gene EIF2AK2
Method in brief: as §1

[1] = molecular target: T7, ABL1(F317I)-phosphorylated (Homo sapiens, UniProt P00519, F317I)
T7 construct: phosphorylated
Method in brief: as §1

CDKL3 = CDKL3 (Homo sapiens, UniProt Q8IVW4)
Method in brief: as §1

AURKA = AURKA (Homo sapiens, UniProt O14965)
Method in brief: as §1

TIE1 = TIE1 (Homo sapiens, UniProt P35590)
Method in brief: as §1

MAP3K4 = MAP3K4 (Homo sapiens, UniProt Q9Y6R4)
Method in brief: as §1

GSK3A = GSK3A (Homo sapiens, UniProt P49840)
Method in brief: as §1

EPHA5 = EPHA5 (Homo sapiens, UniProt P54756)
Method in brief: as §1

FLT3(D835H) = FLT3(D835H) (Homo sapiens, UniProt P36888, D835H)
Method in brief: as §1

T5 sequence (Q9P286 whole entry): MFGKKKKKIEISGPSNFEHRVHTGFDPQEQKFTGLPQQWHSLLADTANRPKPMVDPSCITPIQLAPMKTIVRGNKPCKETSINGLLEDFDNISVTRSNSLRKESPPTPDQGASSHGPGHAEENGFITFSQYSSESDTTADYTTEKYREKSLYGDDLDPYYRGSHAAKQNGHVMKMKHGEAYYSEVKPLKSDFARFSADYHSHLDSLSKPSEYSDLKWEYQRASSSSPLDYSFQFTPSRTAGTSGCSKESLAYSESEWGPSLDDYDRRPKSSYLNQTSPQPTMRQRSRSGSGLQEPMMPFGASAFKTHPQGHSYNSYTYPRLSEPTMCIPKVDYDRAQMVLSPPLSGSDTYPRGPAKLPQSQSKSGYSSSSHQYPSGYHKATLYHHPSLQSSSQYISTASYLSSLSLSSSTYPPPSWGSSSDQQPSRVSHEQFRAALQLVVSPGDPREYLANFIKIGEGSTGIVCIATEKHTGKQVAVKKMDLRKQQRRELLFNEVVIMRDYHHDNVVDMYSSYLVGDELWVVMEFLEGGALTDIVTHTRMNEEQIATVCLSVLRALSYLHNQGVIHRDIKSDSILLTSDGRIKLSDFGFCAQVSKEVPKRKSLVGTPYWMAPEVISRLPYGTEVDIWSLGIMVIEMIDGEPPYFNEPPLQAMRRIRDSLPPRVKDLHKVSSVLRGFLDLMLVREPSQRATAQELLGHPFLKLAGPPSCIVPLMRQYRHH
CDKL3, sequence (Q8IVW4 whole entry): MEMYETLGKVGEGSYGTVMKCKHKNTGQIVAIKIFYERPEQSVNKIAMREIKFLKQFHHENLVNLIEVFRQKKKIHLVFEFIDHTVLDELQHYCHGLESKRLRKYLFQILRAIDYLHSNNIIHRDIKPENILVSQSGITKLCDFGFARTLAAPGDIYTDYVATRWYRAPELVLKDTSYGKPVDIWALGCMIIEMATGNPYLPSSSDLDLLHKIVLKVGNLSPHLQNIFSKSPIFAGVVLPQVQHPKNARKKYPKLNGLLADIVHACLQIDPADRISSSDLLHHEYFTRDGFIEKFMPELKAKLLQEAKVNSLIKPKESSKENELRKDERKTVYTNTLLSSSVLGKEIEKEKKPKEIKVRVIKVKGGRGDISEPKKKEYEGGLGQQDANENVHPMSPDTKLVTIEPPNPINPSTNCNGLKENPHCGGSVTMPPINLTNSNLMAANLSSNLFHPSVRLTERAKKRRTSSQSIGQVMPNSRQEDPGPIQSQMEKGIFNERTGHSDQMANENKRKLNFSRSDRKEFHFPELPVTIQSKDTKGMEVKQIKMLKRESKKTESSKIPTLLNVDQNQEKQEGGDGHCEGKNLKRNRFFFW
T6 sequence (P19525 whole entry): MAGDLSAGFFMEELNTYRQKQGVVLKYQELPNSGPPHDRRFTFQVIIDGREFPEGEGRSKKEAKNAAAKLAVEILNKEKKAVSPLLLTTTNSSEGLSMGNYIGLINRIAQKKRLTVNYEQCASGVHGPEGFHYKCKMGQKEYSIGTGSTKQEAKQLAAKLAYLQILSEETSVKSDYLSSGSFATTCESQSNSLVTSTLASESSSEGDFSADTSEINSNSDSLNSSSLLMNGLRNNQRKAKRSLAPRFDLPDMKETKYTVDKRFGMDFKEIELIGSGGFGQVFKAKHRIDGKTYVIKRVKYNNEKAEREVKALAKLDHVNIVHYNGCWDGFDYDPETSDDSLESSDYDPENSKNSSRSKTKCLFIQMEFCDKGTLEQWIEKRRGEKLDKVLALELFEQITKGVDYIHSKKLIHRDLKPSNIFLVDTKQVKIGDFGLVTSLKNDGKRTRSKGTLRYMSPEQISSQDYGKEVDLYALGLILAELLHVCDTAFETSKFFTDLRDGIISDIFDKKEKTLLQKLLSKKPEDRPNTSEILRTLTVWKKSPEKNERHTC
LYN, sequence (P07948 whole entry): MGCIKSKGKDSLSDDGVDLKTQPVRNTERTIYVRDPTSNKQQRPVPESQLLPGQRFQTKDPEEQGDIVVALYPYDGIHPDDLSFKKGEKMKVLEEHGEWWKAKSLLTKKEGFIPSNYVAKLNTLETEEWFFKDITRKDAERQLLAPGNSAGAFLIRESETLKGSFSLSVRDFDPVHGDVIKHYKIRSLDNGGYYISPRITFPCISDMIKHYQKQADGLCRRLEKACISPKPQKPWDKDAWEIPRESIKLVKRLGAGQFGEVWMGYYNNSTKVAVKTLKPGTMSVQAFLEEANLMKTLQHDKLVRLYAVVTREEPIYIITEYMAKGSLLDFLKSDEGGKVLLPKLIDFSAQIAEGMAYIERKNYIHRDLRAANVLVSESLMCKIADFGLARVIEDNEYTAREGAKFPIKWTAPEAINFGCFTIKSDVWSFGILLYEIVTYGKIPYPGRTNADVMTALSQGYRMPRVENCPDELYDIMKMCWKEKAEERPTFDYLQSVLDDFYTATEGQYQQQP
GSK3A, sequence (P49840 whole entry): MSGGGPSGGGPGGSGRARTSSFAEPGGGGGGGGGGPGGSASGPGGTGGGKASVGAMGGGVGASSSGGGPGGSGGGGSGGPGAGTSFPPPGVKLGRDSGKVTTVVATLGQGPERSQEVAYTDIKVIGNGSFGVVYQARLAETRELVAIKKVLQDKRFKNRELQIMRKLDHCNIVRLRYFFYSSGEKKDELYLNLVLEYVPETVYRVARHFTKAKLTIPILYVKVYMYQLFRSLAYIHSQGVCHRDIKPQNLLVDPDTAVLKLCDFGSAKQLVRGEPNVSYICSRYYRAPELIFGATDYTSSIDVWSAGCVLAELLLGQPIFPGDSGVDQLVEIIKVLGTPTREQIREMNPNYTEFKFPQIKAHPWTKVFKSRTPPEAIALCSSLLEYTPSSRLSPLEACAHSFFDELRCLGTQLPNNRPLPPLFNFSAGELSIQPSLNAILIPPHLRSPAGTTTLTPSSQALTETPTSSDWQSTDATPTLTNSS
AURKA, sequence (O14965 whole entry): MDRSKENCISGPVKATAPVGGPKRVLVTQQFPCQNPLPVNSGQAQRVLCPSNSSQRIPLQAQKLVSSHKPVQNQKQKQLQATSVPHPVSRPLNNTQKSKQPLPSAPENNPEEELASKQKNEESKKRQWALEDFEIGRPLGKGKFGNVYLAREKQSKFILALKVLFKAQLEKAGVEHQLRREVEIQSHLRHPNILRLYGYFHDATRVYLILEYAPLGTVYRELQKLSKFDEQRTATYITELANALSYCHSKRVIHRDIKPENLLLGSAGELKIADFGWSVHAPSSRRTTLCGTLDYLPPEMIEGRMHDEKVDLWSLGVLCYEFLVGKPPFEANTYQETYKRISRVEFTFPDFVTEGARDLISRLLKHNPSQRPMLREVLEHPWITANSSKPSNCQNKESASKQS
PIK3C2G, sequence (O75747 whole entry): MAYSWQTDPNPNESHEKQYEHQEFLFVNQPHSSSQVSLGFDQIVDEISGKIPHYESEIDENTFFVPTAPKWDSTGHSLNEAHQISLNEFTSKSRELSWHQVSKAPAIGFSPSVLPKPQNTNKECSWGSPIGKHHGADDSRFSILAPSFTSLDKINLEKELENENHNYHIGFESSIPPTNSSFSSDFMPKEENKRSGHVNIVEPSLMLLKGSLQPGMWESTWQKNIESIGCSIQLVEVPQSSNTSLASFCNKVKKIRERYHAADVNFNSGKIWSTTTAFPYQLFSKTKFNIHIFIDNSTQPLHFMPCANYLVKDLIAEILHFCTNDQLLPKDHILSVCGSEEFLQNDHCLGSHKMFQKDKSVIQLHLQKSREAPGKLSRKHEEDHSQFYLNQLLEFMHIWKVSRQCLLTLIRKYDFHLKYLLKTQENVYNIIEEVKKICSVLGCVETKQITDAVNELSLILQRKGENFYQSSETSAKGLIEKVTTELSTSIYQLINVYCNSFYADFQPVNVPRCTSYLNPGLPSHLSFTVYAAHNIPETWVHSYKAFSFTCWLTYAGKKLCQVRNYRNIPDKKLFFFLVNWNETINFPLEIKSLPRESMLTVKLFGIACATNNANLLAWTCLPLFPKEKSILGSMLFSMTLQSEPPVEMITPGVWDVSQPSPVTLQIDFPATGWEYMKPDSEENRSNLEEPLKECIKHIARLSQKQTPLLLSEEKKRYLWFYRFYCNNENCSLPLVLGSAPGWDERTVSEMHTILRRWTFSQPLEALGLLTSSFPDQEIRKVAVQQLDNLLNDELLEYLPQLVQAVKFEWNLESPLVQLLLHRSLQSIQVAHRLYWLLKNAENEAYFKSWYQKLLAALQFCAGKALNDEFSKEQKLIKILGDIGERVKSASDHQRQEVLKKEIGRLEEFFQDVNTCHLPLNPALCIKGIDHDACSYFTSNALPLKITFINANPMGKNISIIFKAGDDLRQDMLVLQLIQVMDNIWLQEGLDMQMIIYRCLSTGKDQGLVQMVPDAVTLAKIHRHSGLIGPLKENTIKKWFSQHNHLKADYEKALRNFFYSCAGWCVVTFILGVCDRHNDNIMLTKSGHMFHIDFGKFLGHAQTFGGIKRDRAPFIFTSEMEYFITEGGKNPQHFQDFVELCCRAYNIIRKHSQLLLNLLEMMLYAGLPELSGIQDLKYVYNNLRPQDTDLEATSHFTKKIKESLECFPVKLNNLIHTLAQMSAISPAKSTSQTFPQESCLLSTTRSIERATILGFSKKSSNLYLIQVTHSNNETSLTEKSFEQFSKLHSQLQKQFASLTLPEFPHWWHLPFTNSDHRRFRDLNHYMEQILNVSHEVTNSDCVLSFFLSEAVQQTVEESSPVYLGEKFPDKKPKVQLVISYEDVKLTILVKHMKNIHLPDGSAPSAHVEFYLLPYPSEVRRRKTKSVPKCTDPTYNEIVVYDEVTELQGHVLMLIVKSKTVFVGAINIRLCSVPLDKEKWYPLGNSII

In the case of O=C(/C=C/c1cnccc1-c1ccc(F)cc1)Nc1ccc(CCc2nnco2)cc1 [T-418, (2E)-3-(4-(4-fluorophenyl)pyridin-3-yl)-N-(4-(2-(1,3,4-oxadiazol-2-yl)ethyl)phenyl)acrylamide], the remaining binding at 0.3 µM (JNK2; sheet T-418) is reported as 86%, the remaining binding at 0.3 µM (ERBB2; sheet T-418) is reported as 52% and the remaining binding at 0.3 µM (IKK-epsilon; sheet T-418) is reported as 100%. The remaining binding at 0.3 µM (PCTK2; sheet T-418) was 100%, the remaining binding at 0.3 µM (LYN; sheet T-418) was 100% and the remaining binding at 0.3 µM (EPHB4; sheet T-418) was 96%. The remaining binding at 0.3 µM (NEK2; sheet T-418) was 100%, the remaining binding at 0.3 µM (TYRO3; sheet T-418) was 82% and the remaining binding at 0.3 µM (PFTK1; sheet T-418) was 87%. For the same compound, the remaining binding at 0.3 µM (WNK1; sheet T-418) was 100%, the remaining binding at 0.3 µM (PAK7; sheet T-418) was 100% and the remaining binding at 0.3 µM (PIK3C2G; sheet T-418) was 95%. For the same compound, the remaining binding at 0.3 µM (MAP4K4; sheet T-418) was 89%, the remaining binding at 0.3 µM (PRKR; sheet T-418) was 100% and the remaining binding at 0.3 µM ([1]; sheet T-418) was 100%. The remaining binding at 0.3 µM (CDKL3; sheet T-418) was 78%, the remaining binding at 0.3 µM (AURKA; sheet T-418) was 100% and the remaining binding at 0.3 µM (TIE1; sheet T-418) was 100%. The remaining binding at 0.3 µM (MAP3K4; sheet T-418) was 68%, the remaining binding at 0.3 µM (GSK3A; sheet T-418) was 64% and the remaining binding at 0.3 µM (EPHA5; sheet T-418) was 96%. For the same compound, the remaining binding at 0.3 µM (FLT3(D835H); sheet T-418) was 100%.
Cc1ncccc1Oc1sc(C(N)=O)c2c1-c1c(cnn1C)CC2 [T-474, 1-methyl-8-((2-methylpyridin-3-yl)oxy)-4,5-dihydro-1H-thieno[3,4-g]indazole-6-carboxamide] gave a remaining binding at 0.3 µM (JNK2) of 87%, a remaining binding at 0.3 µM (ERBB2) of 47% and a remaining binding at 0.3 µM (IKK-epsilon) of 100%. The remaining binding at 0.3 µM (PCTK2) was 100%, the remaining binding at 0.3 µM (LYN) was 100% and the remaining binding at 0.3 µM (EPHB4) was 100%. The remaining binding at 0.3 µM (NEK2) was 100%, the remaining binding at 0.3 µM (TYRO3) was 95% and the remaining binding at 0.3 µM (PFTK1) was 100%. For the same compound, the remaining binding at 0.3 µM (WNK1) was 100%, the remaining binding at 0.3 µM (PAK7) was 100% and the remaining binding at 0.3 µM (PIK3C2G) was 92%. It also gave a remaining binding at 0.3 µM (MAP4K4) of 83%, a remaining binding at 0.3 µM (PRKR) of 100% and a remaining binding at 0.3 µM [1] of 100%. The remaining binding at 0.3 µM (CDKL3) was 96%, the remaining binding at 0.3 µM (AURKA) was 100% and the remaining binding at 0.3 µM (TIE1) was 100%. It also gave a remaining binding at 0.3 µM (MAP3K4) of 72%, a remaining binding at 0.3 µM (GSK3A) of 70% and a remaining binding at 0.3 µM (EPHA5) of 98%. It also gave a remaining binding at 0.3 µM (FLT3(D835H)) of 58%.
